From patent US12157746B2, “Tetrahydro-1H-pyrazino[2,1-a]isoindolylquinoline compounds for the treatment of autoimmune disease” (F. HOFFMANN-LA ROCHE AG, priority 2018, dated 2024)

What was measured:
[1] = Human microsomal stability assay; type: in vitro ADME; conditions: human liver microsomes 0.5 mg/mL, 37° C., pH 7.4, NADPH regenerating system, 0-30 minutes
Summary of the method: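 Human liver microsomes (0.5 mg/mL) with […] compound in 100 mM potassium phosphate, pH 7.4, 37° C; reaction started with NADPH regenerating system after 10 min preincubation. Parent remaining at 0–30 min quantified by LC-MS/MS; clearance binned low (<7.0), medium (7.0-16.2) or high (16.2-23.2) mL/min/kg.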

human TLR9 = target: T1, human TLR9 (Homo sapiens, UniProt Q9NR96); assay: HEK293-Blue-hTLR-9 cells assay; type: cell-based; conditions: HEK293-Blue-hTLR9 cells, ODN2006 stimulation, 20 hrs, SEAP reporter; read-out: HEK/hTLR9 IC50
T1 sequence (Q9NR96 26-1032): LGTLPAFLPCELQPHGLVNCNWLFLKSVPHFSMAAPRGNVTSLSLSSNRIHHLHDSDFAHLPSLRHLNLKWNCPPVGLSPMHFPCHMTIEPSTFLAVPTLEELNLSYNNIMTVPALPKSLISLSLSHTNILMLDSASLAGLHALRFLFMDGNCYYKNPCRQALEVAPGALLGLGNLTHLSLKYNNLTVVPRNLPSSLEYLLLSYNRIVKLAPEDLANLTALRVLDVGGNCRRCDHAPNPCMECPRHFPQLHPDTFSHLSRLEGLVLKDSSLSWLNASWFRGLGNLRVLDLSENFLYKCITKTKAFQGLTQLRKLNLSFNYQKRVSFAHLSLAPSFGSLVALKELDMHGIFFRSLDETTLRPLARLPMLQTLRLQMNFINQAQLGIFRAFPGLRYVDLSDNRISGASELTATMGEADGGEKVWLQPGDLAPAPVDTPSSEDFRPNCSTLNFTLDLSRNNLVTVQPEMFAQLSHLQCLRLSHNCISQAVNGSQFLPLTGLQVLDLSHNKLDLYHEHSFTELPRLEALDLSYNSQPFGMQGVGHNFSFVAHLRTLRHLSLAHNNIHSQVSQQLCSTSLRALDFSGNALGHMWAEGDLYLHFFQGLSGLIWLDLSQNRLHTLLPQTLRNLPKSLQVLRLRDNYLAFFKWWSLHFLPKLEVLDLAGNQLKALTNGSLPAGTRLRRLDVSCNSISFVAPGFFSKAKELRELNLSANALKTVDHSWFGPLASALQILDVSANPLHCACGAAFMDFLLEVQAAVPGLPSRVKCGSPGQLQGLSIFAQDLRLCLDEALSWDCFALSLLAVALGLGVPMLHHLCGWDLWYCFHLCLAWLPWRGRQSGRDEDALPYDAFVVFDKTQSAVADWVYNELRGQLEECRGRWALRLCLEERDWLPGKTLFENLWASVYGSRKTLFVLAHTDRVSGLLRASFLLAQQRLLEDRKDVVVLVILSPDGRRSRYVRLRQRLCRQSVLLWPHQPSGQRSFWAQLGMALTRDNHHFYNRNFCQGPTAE
Summary of the method: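 Antagonist mode in HEK293-Blue hTLR9 reporter cells (SEAP under NF-κB/AP-1 sites), stimulated with ODN2006 added from a 20 uM solution. Serially diluted compound (1% DMSO final) was incubated 20 hrs at 37° C. Supernatant SEAP was developed with QUANTI-Blue for 2 h at 37° C and read at 620˜655 nm.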

SMILES	CL (h) [1] [mL/min/kg]	IC50 (human TLR9) [nM]
C[C@@H]1CN(c2ccc(C#N)c3ncccc23)C[C@@H]2c3ccc(N4CCNCC4)cc3CN12 [Example 1, 5-[(4R,10bS)-4-methyl-8-piperazin-1-yl-3,4,6,10b-tetrahydro-1H-pyrazino[2,1-a]isoindol-2-yl]quinoline-8-carbonitrile]	6.8	106
CO[C@H]1CNC[C@@H]1N(C)c1ccc2c(c1)CN1[C@H](C)CN(c3ccc(C#N)c4ncccc34)C[C@H]21 [Example 64, 5-[(4R,10bS)-8-[[(3S,4S)-4-methoxypyrrolidin-3-yl]-methyl-amino]-4-methyl-3,4,6,10b-tetrahydro-1H-pyrazino[2,1-a]isoindol-2-yl]quinoline-8-carbonitrile]		125
CO[C@H]1CNCC[C@H]1Nc1ccc2c(c1)CN1[C@H](C)CN(c3ccc(C#N)c4ncccc34)C[C@H]21 [Example 66, 5-[(4R,10bS)-8-[[(3S,4R)-3-methoxy-4-piperidyl]amino]-4-methyl-3,4,6,10b-tetrahydro-1H-pyrazino[2,1-a]isoindol-2-yl]quinoline-8-carbonitrile]		141
C[C@@H]1CN(c2ccc(C#N)c3ncccc23)C[C@@H]2c3ccc(N4C[C@@H]5CNCCN5C4=O)cc3CN12 [Example 71, 5-[(4R,10bS)-8-[(8aS)-3-oxo-1,5,6,7,8,8a-hexahydroimidazo[1,5-a]pyrazin-2-yl]-4-methyl-3,4,6,10b-tetrahydro-1H-pyrazino[2,1-a]isoindol-2-yl]quinoline-8-carbonitrile]		115
C[C@@H]1CN(c2ccc(C#N)c3ncccc23)C[C@@H]2c3ccc(N4C[C@H]5CNCCN5C4=O)cc3CN12 [Example 72, 5-[(4R,10bS)-8-[(8aR)-3-oxo-1,5,6,7,8,8a-hexahydroimidazo[1,5-a]pyrazin-2-yl]-4-methyl-3,4,6,10b-tetrahydro-1H-pyrazino[2,1-a]isoindol-2-yl]quinoline-8-carbonitrile]		108
C[C@@H]1CN(c2ccc(C#N)c3ncccc23)C[C@@H]2c3ccc(OC[C@@H]4C[C@H](F)CN4)cc3CN12 [Example 74, 5-[(4R,10bS)-8-[[(2S,4S)-4-fluoropyrrolidin-2-yl]methoxy]-4-methyl-3,4,6,10b-tetrahydro-1H-pyrazino[2,1-a]isoindol-2-yl]quinoline-8-carbonitrile]		136
Cc1ccc(N2C[C@@H](C)N3Cc4cc(N[C@H]5CNC[C@H]5F)ccc4[C@H]3C2)c2nccnc12 [Example 76, (4R,10bS)—N-[(3S,4R)-4-fluoropyrrolidin-3-yl]-4-methyl-2-(8-methylquinoxalin-5-yl)-3,4,6,10b-tetrahydro-1H-pyrazino[2,1-a]isoindol-8-amine]		150
C[C@@H]1CN(c2ccc(C(F)(F)F)c3nccnc23)C[C@@H]2c3ccc(N[C@H]4CNC[C@H]4F)cc3CN12 [Example 77, (4R,10bS)—N-[(3S,4R)-4-fluoropyrrolidin-3-yl]-4-methyl-2-[8-(trifluoromethyl)quinoxalin-5-yl]-3,4,6,10b-tetrahydro-1H-pyrazino[2,1-a]isoindol-8-amine]		141
C[C@@H]1CN(c2ccc(C#N)c3ncccc23)C[C@@H]2c3cccc(N[C@H]4CNC[C@H]4F)c3CN12 [Example 81, 5-[(4R,10bS)-7-[[(3S,4R)-4-fluoropyrrolidin-3-yl]amino]-4-methyl-3,4,6,10b-tetrahydro-1H-pyrazino[2,1-a]isoindol-2-yl]quinoline-8-carbonitrile]		126
C[C@@H]1CN(c2ccc(C#N)c3ncccc23)C[C@@H]2c3cc(F)c(N4C[C@H](N)[C@@](C)(O)C4)cc3CN12 [Example 83, 5-[(4R,10bS)-8-[(3S,4S)-4-amino-3-hydroxy-3-methyl-pyrrolidin-1-yl]-9-fluoro-4-methyl-3,4,6,10b-tetrahydro-1H-pyrazino[2,1-a]isoindol-2-yl]quinoline-8-carbonitrile]		168
C[C@@H]1CN(c2ccc(C#N)c3ncccc23)C[C@@H]2c3cc(F)c(N4CC5(CNC5)C4)cc3CN12 [Example 84, 5-[(4R,10bS)-8-(2,6-diazaspiro[3.3]heptan-2-yl)-9-fluoro-4-methyl-3,4,6,10b-tetrahydro-1H-pyrazino[2,1-a]isoindol-2-yl]quinoline-8-carbonitrile]		186
[2H]c1ccc2c(N3C[C@@H](C)N4Cc5cc(N6CC7(CNCCO7)C6)ccc5[C@H]4C3)ccc(C#N)c2n1 [Example 90, 5-[(4R,10bS)-4-methyl-8-(5-oxa-2,8-diazaspiro[3.5]nonan-2-yl)-3,4,6,10b-tetrahydro-1H-pyrazino[2,1-a]isoindol-2-yl]-2-deuterio-quinoline-8-carbonitrile]		164

Further molecules by falling IC50 (human TLR9), results first:

CL (h) [1] [mL/min/kg]	IC50 (human TLR9) [nM]	SMILES
	105	C[C@@H]1CN(c2ccc(C#N)c3ncccc23)C[C@@H]2c3ccc(NCC4COCCN4)cc3CN12 (stereo partly drawn) [Example 57, 5-[(4R,10bS)-4-methyl-8-(morpholin-3-ylmethylamino)-3,4,6,10b-tetrahydro-1H-pyrazino[2,1-a]isoindol-2-yl]quinoline-8-carbonitrile]
	92.1	C[C@@H]1CN(c2ccc(C#N)c3ncccc23)C[C@@H]2c3ccc(N[C@H]4CNCCOC4)cc3CN12 [Example 56B, 5-[(4R,10bS)-4-methyl-8-[[(6S)-1,4-oxazepan-6-yl]amino]-3,4,6,10b-tetrahydro-1H-pyrazino[2,1-a]isoindol-2-yl]quinoline-8-carbonitrile]
	84.3	C[C@@H]1CN(c2ccc(C#N)c3ncccc23)C[C@@H]2c3ccc(NC[C@@H]4CNCCO4)cc3CN12 [Example 58, 5-[(4R,10bS)-4-methyl-8-[[(2S)-morpholin-2-yl]methylamino]-3,4,6,10b-tetrahydro-1H-pyrazino[2,1-a]isoindol-2-yl]quinoline-8-carbonitrile]
	83.6	C[C@@H]1CN(c2ccc(C#N)c3ncsc23)C[C@@H]2c3ccc(N[C@H]4CNC[C@H]4F)cc3CN12 [Example 78, 7-[(4R,10bS)-8-[[(3S,4R)-4-fluoropyrrolidin-3-yl]amino]-4-methyl-3,4,6,10b-tetrahydro-1H-pyrazino[2,1-a]isoindol-2-yl]-1,3-benzothiazole-4-carbonitrile]
	83	C[C@@H]1CN(c2ccc(C#N)c3ncccc23)C[C@@H]2c3ccc(N[C@@H]4CNCCOC4)cc3CN12 [Example 56A, 5-[(4R,10bS)-4-methyl-8-[[(6R)-1,4-oxazepan-6-yl]amino]-3,4,6,10b-tetrahydro-1H-pyrazino[2,1-a]isoindol-2-yl]quinoline-8-carbonitrile]
	74	C[C@@H]1CN(c2ccc(C#N)c3ncccc23)C[C@@H]2c3ccc(NC[C@@H]4C[C@H](F)CN4)cc3CN12 [Example 70, 5-[(4R,10bS)-8-[[(2S,4S)-4-fluoropyrrolidin-2-yl]methylamino]-4-methyl-3,4,6,10b-tetrahydro-1H-pyrazino[2,1-a]isoindol-2-yl]quinoline-8-carbonitrile]
	73.5	C[C@@H]1CN(c2ccc(C#N)c3ncccc23)C[C@@H]2c3ccc(NC[C@H]4CNCCO4)cc3CN12 [Example 59, 5-[(4R,10bS)-4-methyl-8-[[(2R)-morpholin-2-yl]methylamino]-3,4,6,10b-tetrahydro-1H-pyrazino[2,1-a]isoindol-2-yl]quinoline-8-carbonitrile]
	72.7	CO[C@@H]1CNC[C@H]1Nc1cc2c(cc1C)[C@H]1CN(c3ccc(C#N)c4ncccc34)C[C@@H](C)N1C2 [Example 63, 5-[(4R,10bS)-8-[[(3R,4R)-4-methoxypyrrolidin-3-yl]amino]-4,9-dimethyl-3,4,6,10b-tetrahydro-1H-pyrazino[2,1-a]isoindol-2-yl]quinoline-8-carbonitrile]
	63.6	C[C@@H]1CN(c2ccc(C#N)c3ncccc23)C[C@@H]2c3cccc(NCCN4CC[C@H](O)C4)c3CN12 [Example 80, 5-[(4R,10bS)-7-[2-[(3S)-3-hydroxypyrrolidin-1-yl]ethylamino]-4-methyl-3,4,6,10b-tetrahydro-1H-pyrazino[2,1-a]isoindol-2-yl]quinoline-8-carbonitrile]
